From patent publication US10829520B2, “Beta-hairpin peptidomimetics” (POLYPHOR AG, priority 2015, dated 2020) come the findings set out here.

Where a SMILES comes first, the peptide text is derived from it. Bridges are numbered along the chain shown (N, C = ends). Roman numbers before positions name the chains, in order. [ ]: non-standard residue; d: D form. Hyp = O=C(O)[C@@H]1C[C@@H](O)CN1; NMeDab = CN[C@@H](CCN)C(=O)O; Tle = CC(C)(C)[C@H](N)C(=O)O; dDab = NCC[C@@H](N)C(=O)O; Dab = NCC[C@H](N)C(=O)O; dAze = O=C(O)[C@H]1CCN1; Dap = NC[C@H](N)C(=O)O

What all share (type): cell-based
Series [1] relates to Acinetobacter baumannii 872842. The note with it: 872842.
For series [2], the system named is Acinetobacter baumannii DSM 30008. As to conditions: DSM 30008. The method in brief:
(§1)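 Peptide MICs were determined by CLSI broth microdilution in cation-adjusted Mueller-Hinton II broth with 0.002% polysorbate 80, inoculum approx. 10^6 CFU/mL. Two-fold serial dilutions of peptide were tested. MIC was the lowest concentration (μg/mL) with no visible growth after 18-20 hours at 35° C.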

For a further series, the system named is Escherichia coli 926415. As to conditions: 926415.
Series [3] concerns Escherichia coli ATCC 25922. As to conditions: ATCC 25922. The method, boiled down: as §1
Series [4] relates to Klebsiella pneumoniae 968733. The note with it: 968733.
For series [5], the system named is Klebsiella pneumoniae SSI #3010. The note with it: SSI #3010. The method, boiled down:
as §1

For series [6], the system named is Pseudomonas aeruginosa ATCC 27853. The note with it: ATCC 27853. The method, boiled down: as §1
The test system of series [7] is human red blood cells (hRBC). Put plainly: Hemolysis of human red blood cells. As to conditions: red cells of human, 1 h, 100. The method, boiled down:
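Percent lysis of washed human erythrocytes after 1 h at 37° C. with 100 μg/mL peptide, calculated from OD540 of 8-fold diluted supernatant as a fraction of the 2.5% Triton X-100 value.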

Consider `CC(C)C[C@@H]1NC(=O)[C@@H](CC(C)C)NC(=O)[C@H](CCN)NC(=O)[C@@H](NC(=O)[C@H](CCN)NC(=O)[C@@H](NC(=O)[C@H](CCN)NC(=O)CC[C@@H]2NC(=O)[C@H](CCN)NC(=O)[C@H](Cc3ccc(O)cc3)NC(=O)[C@H](CN)NC(=O)[C@H](C(C)C)NC(=O)[C@@H]3CCCN3C(=O)[C@H]3CCCN3C(=O)[C@H](CO)NC(=O)[C@H](C)NC(=O)[C@H](C(C)C)NC(=O)[C@H](CCN)NC(=O)[C@H](Cc3c[nH]c4ccccc34)NC(=O)[C@H](CCN)NC(=O)[C@@H](CCN)NC2=O)[C@@H](C)O)CCNC(=O)[C@H]([C@@H](C)O)NC(=O)[C@H](CCN)NC(=O)[C@H](CCN)NC1=O` [Ex. 85] (I: cyclo(V[Dap]Y[Dab]E[dDab][Dab]W[Dab]VAS[dP]P) / II: [Dab]T[Dab][Dab][Dab][dL]L[Dab][Dab]T; amide I:5-II:N; lactam II:4-II:C), for which the “Acinetobacter baumannii 872842 MIC” value in series [1] amounted to 1 µg/mL. For the same compound, the “Acinetobacter baumannii DSM 30008 MIC” value in series [2] came out at 1 µg/mL. In the series with Escherichia coli 926415, the “Escherichia coli 926415 MIC” value is 2 µg/mL. In series [3], the “Escherichia coli ATCC 25922 MIC” value turned out to be 1 µg/mL. For the same compound, in series [4], the “Klebsiella pneumoniae 968733 MIC” value was determined as 8 µg/mL. Besides, the “Klebsiella pneumoniae SSI #3010 MIC” value in series [5] turned out to be 2 µg/mL. In series [6], the “Pseudomonas aeruginosa ATCC 27853 MIC” value was 1 µg/mL. Further, the “Hemolysis at 100 μg/mL” value in series [7] was <1%.

For `CC(C)C[C@@H]1NC(=O)[C@@H](Cc2ccccc2)NC(=O)[C@H](CCN)NC(=O)[C@@H](NC(=O)[C@H](CCN)NC(=O)[C@@H](NC(=O)[C@H](CCN)NC(=O)CC[C@@H]2NC(=O)[C@H](CCN)NC(=O)[C@H](Cc3ccc(O)cc3)NC(=O)[C@@H]3CCNC(=O)C[C@H](NC(=O)[C@H](C(C)(C)C)NC(=O)[C@H](CCN)NC(=O)[C@H](Cc4c[nH]c5ccccc45)NC(=O)[C@H](CCN)NC(=O)[C@@H](CCN)NC2=O)C(=O)N[C@@H]([C@@H](C)O)C(=O)N2CC[C@@H]2C(=O)N2CCC[C@H]2C(=O)N[C@@H](C(C)C)C(=O)N3)[C@@H](C)O)CCNC(=O)[C@H]([C@@H](C)O)NC(=O)[C@H](CCN)NC(=O)[C@H](CCN)NC1=O` [Ex. 86] (I: cyclo(DT[dAze]PV[Dab]Y[Dab]E[dDab][Dab]W[Dab][Tle]) / II: [Dab]T[Dab][Dab][Dab][dF]L[Dab][Dab]T; lactam I:1-I:6, II:4-II:C; amide I:9-II:N), in series [1], the “Acinetobacter baumannii 872842 MIC” value is 0.5 µg/mL. Further, the “Acinetobacter baumannii DSM 30008 MIC” value in series [2] was found to be 1 µg/mL. Moreover, the “Escherichia coli 926415 MIC” value in the series on Escherichia coli 926415 is 0.25 µg/mL. The “Escherichia coli ATCC 25922 MIC” value in series [3] was determined as 0.25 µg/mL. The “Klebsiella pneumoniae 968733 MIC” value in series [4] came out at 0.5 µg/mL. Further, the “Klebsiella pneumoniae SSI #3010 MIC” value in series [5] stood at 0.25 µg/mL. In addition, the “Pseudomonas aeruginosa ATCC 27853 MIC” value in series [6] was 0.5 µg/mL. In addition, in series [7], the “Hemolysis at 100 μg/mL” value came to 1%.

In the case of `CC(C)C[C@@H]1NC(=O)[C@@H](CC(C)C)NC(=O)[C@H](CCN)NC(=O)[C@@H](NC(=O)[C@H](CCN)NC(=O)[C@@H](NC(=O)[C@H](CCN)NC(=O)CC[C@@H]2NC(=O)[C@H](CCN)NC(=O)[C@H](Cc3ccc(O)cc3)NC(=O)[C@@H]3CCNC(=O)C[C@H](NC(=O)[C@H](C(C)(C)C)NC(=O)[C@H](CCN)NC(=O)[C@H](Cc4c[nH]c5ccccc45)NC(=O)[C@H](CCN)NC(=O)[C@@H](CCN)NC2=O)C(=O)N[C@@H]([C@@H](C)O)C(=O)N2CC[C@@H]2C(=O)N2CCC[C@H]2C(=O)N[C@@H](C(C)C)C(=O)N3)[C@@H](C)O)CCNC(=O)[C@H]([C@@H](C)O)NC(=O)[C@H](CCN)NC(=O)[C@H](CCN)NC1=O` [Ex. 87] (I: cyclo(W[Dab][Tle]DT[dAze]PV[Dab]Y[Dab]E[dDab][Dab]) / II: [Dab]T[Dab][Dab][Dab][dL]L[Dab][Dab]T; lactam I:4-I:9, II:4-II:C; amide I:12-II:N), in series [1], the “Acinetobacter baumannii 872842 MIC” value was 0.5 µg/mL. For the same compound, in series [2], the “Acinetobacter baumannii DSM 30008 MIC” value was 0.25 µg/mL. Also, in the series on Escherichia coli 926415, the “Escherichia coli 926415 MIC” value was found to be 0.125 µg/mL. For the same compound, the “Escherichia coli ATCC 25922 MIC” value in series [3] was 0.125 µg/mL. The “Klebsiella pneumoniae 968733 MIC” value in series [4] was 0.25 µg/mL. Moreover, the “Klebsiella pneumoniae SSI #3010 MIC” value in series [5] was found to be 0.25 µg/mL. Also, the “Pseudomonas aeruginosa ATCC 27853 MIC” value in series [6] is 0.25 µg/mL. The “Hemolysis at 100 μg/mL” value in series [7] is recorded as <1%.

With `CC(C)C[C@@H]1NC(=O)[C@@H](CC(C)C)NC(=O)[C@H](CCN)NC(=O)[C@@H](NC(=O)[C@H](CCN)NC(=O)[C@@H](NC(=O)[C@H](CCN)NC(=O)CC[C@@H]2NC(=O)[C@H](CCN)NC(=O)[C@H](Cc3ccc(O)cc3)NC(=O)[C@H](CO)NC(=O)[C@H](CC(C)C)NC(=O)[C@@H]3C[C@@H](O)CN3C(=O)[C@@H](C)NC(=O)[C@H](CO)NC(=O)[C@H]([C@@H](C)O)NC(=O)[C@H](C(C)C)NC(=O)[C@H](CCN)NC(=O)[C@H](Cc3c[nH]c4ccccc34)NC(=O)[C@H](CCN)NC(=O)[C@@H](CCN)NC2=O)[C@@H](C)O)CCNC(=O)[C@H]([C@@H](C)O)NC(=O)[C@H](CCN)NC(=O)[C@H](CCN)NC1=O` [Ex. 88] (I: cyclo([Dab]E[dDab][Dab]W[Dab]VTS[dA][Hyp]LSY) / II: [Dab]T[Dab][Dab][Dab][dL]L[Dab][Dab]T; amide I:2-II:N; lactam II:4-II:C), the “Acinetobacter baumannii 872842 MIC” value in series [1] turned out to be 1 µg/mL. The “Acinetobacter baumannii DSM 30008 MIC” value in series [2] came out at 0.5 µg/mL. In the series with Escherichia coli 926415, the “Escherichia coli 926415 MIC” value was found to be 1 µg/mL. Also, the “Escherichia coli ATCC 25922 MIC” value in series [3] was 0.125 µg/mL. The “Klebsiella pneumoniae 968733 MIC” value in series [4] is 2 µg/mL. Moreover, the “Klebsiella pneumoniae SSI #3010 MIC” value in series [5] worked out at 0.25 µg/mL. The “Pseudomonas aeruginosa ATCC 27853 MIC” value in series [6] came to 0.5 µg/mL. Further, the “Hemolysis at 100 μg/mL” value in series [7] was determined as 1%.

Regarding `CC(C)C[C@@H]1NC(=O)[C@@H](CC(C)C)NC(=O)[C@H](CCN)NC(=O)[C@@H](NC(=O)[C@H](CCN)NC(=O)[C@@H](NC(=O)[C@H](CCN)N(C)C(=O)CC[C@@H]2NC(=O)[C@H](CCN)NC(=O)[C@H](Cc3ccc(O)cc3)NC(=O)[C@H](CO)NC(=O)[C@H](CC(C)C)NC(=O)[C@@H]3CCCN3C(=O)[C@H]3CCCN3C(=O)[C@H](CO)NC(=O)[C@H]([C@@H](C)O)NC(=O)[C@H](C(C)C)NC(=O)[C@H](CCN)NC(=O)[C@H](Cc3c[nH]c4ccccc34)NC(=O)[C@H](CCN)NC(=O)[C@@H](CCN)NC2=O)[C@@H](C)O)CCNC(=O)[C@H]([C@@H](C)O)NC(=O)[C@H](CCN)NC(=O)[C@H](CCN)NC1=O` [Ex. 89] (I: cyclo(LSY[Dab]E[dDab][Dab]W[Dab]VTS[dP]P) / II: [NMeDab]T[Dab][Dab][Dab][dL]L[Dab][Dab]T; amide I:5-II:N; lactam II:4-II:C), the “Acinetobacter baumannii 872842 MIC” value in series [1] was 1 µg/mL. For the same compound, the “Acinetobacter baumannii DSM 30008 MIC” value in series [2] came to 0.125 µg/mL. Further, the “Escherichia coli 926415 MIC” value with Escherichia coli 926415 was determined as 1 µg/mL. In addition, in series [3], the “Escherichia coli ATCC 25922 MIC” value amounted to 0.125 µg/mL. In series [4], the “Klebsiella pneumoniae 968733 MIC” value worked out at 0.5 µg/mL. Also, the “Klebsiella pneumoniae SSI #3010 MIC” value in series [5] turned out to be 0.25 µg/mL. For the same compound, in series [6], the “Pseudomonas aeruginosa ATCC 27853 MIC” value was determined as 0.25 µg/mL. The “Hemolysis at 100 μg/mL” value in series [7] is recorded as 1%.
